# Measured values reported in ChEMBL document CHEMBL1201862, “PubChem BioAssay data set” (2004).
# Activity calls are given as the source filed them.
# What was measured:
# [1] = biological target: T1, Cytochrome P450 1A2 (Homo sapiens, UniProt P05177);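 further: PubChem cytochrome P450 panel assay, CYP1A2 panel member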
# T1 sequence (P05177 whole entry): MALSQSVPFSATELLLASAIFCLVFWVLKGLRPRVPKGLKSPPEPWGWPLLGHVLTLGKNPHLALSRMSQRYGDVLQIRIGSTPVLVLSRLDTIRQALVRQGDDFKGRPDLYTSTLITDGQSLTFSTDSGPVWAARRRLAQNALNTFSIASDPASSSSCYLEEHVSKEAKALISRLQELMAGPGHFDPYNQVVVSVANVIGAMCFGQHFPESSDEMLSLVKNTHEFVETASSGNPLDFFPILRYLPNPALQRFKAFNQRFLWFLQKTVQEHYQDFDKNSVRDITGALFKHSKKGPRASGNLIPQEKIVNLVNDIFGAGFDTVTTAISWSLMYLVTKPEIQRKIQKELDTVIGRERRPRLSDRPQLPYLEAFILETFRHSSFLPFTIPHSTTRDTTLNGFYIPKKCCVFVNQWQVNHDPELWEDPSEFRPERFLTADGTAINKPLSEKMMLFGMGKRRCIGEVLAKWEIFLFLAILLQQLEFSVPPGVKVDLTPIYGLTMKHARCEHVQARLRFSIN
# [2] = biological target: T2, Leucine aminopeptidase (Plasmodium falciparum 3D7, UniProt Q8IL11); test: P. falciparum M17LAP inhibitors, primary screen, biochemical, fluorogenic H-Leu-NHMec substrate, 1536-well (AID 1619); format: functional
# T2 sequence (Q8IL11 whole entry): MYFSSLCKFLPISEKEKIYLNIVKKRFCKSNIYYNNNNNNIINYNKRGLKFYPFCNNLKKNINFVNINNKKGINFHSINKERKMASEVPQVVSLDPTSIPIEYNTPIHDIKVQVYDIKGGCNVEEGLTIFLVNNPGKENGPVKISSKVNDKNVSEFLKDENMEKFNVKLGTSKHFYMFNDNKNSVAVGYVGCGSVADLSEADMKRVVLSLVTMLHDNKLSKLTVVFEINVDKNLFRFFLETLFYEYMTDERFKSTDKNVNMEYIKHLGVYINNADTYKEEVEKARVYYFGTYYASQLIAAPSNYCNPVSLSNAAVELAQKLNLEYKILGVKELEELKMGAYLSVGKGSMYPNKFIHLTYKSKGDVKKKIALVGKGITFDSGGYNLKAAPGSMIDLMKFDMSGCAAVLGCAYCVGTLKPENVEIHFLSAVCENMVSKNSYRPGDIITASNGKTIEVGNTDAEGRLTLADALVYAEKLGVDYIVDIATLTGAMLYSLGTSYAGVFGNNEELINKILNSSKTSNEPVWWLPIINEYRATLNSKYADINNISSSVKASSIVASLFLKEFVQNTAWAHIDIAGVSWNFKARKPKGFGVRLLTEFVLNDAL
# [3] = biological target: Large T antigen (Simian virus 40, UniProt P03070); format: functional, Betapolyomavirus macacae;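 further: Confirmatory-stage PubChem screen for compounds that inhibit SV40 T antigen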
# Chain of Large T antigen (P03070 whole entry): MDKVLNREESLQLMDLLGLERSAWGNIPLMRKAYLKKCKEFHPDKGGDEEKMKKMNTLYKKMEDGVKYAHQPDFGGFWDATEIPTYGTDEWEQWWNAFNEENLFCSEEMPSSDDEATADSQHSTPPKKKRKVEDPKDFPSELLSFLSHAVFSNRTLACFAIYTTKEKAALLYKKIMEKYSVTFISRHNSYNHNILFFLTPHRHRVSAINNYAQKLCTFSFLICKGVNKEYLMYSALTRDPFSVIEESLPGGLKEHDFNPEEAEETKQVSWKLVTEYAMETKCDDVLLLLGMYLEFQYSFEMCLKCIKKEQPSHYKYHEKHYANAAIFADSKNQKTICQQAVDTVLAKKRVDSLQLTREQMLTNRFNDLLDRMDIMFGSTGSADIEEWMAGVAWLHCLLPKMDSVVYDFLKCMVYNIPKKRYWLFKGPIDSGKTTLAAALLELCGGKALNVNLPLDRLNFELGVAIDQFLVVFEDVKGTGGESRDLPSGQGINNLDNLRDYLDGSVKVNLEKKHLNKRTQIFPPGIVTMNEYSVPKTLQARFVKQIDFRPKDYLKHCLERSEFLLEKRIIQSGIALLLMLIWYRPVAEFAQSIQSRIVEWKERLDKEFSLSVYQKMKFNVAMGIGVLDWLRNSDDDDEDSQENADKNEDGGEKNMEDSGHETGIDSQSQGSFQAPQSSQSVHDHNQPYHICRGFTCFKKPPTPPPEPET
# [4] = cells; format: functional, cell-based
# [5] = cells; format: functional, cell-based; remark: listed apart in the source
# [6] = biological target: Voltage-dependent T-type calcium channel subunit alpha-1H (Homo sapiens, UniProt O95180); format: functional;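 further: channel activity triggered by adding a high calcium stimulation buffer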
# Chain of Voltage-dependent T-type calcium channel subunit alpha-1H (O95180 whole entry): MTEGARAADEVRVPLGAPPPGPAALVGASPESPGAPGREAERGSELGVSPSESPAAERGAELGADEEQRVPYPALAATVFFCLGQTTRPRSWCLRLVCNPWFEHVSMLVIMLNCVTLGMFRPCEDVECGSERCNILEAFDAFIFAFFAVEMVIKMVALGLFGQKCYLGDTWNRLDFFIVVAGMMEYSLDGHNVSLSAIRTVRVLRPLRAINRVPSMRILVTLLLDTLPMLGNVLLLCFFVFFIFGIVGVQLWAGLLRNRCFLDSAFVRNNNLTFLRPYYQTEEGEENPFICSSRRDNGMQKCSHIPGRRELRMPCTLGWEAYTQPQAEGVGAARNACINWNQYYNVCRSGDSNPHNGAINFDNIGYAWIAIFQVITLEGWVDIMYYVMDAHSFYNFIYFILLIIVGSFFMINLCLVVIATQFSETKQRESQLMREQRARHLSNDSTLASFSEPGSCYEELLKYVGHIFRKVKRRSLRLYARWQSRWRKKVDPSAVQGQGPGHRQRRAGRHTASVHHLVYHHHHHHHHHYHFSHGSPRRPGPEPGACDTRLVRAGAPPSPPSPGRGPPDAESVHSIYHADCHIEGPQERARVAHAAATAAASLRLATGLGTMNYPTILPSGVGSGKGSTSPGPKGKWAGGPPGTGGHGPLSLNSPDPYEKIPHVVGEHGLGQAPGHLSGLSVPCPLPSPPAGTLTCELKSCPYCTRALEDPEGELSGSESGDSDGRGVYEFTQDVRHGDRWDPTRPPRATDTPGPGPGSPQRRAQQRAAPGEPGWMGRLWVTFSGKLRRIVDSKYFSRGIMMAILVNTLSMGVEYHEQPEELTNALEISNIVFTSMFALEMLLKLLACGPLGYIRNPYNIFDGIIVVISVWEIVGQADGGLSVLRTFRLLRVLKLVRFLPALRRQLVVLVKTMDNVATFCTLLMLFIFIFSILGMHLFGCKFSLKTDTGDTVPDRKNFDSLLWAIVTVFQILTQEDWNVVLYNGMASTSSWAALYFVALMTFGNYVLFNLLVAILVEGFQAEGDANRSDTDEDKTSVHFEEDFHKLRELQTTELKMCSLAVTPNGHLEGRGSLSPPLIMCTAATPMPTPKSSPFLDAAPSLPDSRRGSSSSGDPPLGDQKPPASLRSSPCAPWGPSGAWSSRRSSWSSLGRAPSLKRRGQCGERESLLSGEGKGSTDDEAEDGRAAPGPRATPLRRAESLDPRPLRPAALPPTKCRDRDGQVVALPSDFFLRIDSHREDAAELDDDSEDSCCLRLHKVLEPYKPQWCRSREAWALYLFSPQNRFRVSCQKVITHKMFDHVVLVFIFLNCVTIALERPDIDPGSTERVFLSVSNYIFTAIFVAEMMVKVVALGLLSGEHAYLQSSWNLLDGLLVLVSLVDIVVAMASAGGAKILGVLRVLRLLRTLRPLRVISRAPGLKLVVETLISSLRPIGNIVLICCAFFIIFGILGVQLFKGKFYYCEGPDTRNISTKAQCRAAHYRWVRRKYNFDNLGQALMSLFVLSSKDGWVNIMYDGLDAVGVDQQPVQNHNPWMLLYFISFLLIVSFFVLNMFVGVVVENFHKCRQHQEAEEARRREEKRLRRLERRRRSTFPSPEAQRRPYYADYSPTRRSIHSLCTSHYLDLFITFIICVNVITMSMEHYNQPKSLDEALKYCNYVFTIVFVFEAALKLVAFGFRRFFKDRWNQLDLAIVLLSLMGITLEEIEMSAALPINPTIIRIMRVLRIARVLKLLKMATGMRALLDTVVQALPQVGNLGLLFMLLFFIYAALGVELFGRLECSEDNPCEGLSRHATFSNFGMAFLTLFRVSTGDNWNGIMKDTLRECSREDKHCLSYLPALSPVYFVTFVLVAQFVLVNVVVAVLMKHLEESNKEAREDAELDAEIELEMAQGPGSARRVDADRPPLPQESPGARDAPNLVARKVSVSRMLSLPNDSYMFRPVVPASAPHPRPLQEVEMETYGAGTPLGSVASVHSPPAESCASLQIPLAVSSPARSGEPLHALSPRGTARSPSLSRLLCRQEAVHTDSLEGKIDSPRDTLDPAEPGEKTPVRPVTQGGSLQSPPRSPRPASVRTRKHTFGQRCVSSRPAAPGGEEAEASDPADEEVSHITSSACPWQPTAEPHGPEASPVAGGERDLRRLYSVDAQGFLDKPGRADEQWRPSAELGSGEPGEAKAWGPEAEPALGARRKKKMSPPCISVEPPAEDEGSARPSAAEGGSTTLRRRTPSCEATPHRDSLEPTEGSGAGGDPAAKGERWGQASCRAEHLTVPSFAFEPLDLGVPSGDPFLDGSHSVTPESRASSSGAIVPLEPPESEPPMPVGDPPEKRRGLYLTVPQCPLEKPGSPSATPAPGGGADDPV
# [7] = biological target: T3, Endoribonuclease toxin MazF (Escherichia coli K-12, UniProt P0AE70); test: substrate-only fluorescence increase artefacts – biochemical, single-stranded RNase substrate, counter-screen for MazEF activator project, dose response (AID 588502); format: functional
# T3 sequence (P0AE70 whole entry): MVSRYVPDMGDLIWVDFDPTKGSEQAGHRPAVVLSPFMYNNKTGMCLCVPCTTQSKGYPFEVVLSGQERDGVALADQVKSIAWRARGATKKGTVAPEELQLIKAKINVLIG
# [8] = biological target: T3, Endoribonuclease toxin MazF; test: activation of MazEF endoribonuclease cleavage – biochemical, fluorescence, single-stranded RNA substrate, uHTS hits, dose response (AID 588481); format: functional
# [9] = tested on: BJ; test: BJ-TERT fibroblast viability loss – cell-based, RAS-independent, luminescence, dose response (AID 1933); format: functional; conditions: Homo sapiens
# [10] = tested on: BJ; test: cells; format: functional, cell-based; conditions: Homo sapiens
# [11] = DRD fibroblast viability loss – cell-based, non-viral oncogenic, luminescence, dose response (AID 1934); format: functional; conditions: Homo sapiens
# [12] = tested on: BJ; test: BJ-TERT-LT-ST fibroblast viability loss – cell-based, RAS-independent, luminescence, dose response (AID 1935); format: functional; conditions: Homo sapiens;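 further: BJ fibroblasts immortalized with TERT plus LT and ST oncogenes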
# [13] = biological target: T4, Corticotropin-releasing factor receptor 2/Corticotropin-releasing factor-binding protein (Homo sapiens, UniProt P24387+Q13324); test: activators of CRF receptor 2 with binding protein – uHTS hits, confirmation (AID 602473); format: functional; conditions: read-out: EC50_Mean
# T4 sequence (Q13324 whole entry): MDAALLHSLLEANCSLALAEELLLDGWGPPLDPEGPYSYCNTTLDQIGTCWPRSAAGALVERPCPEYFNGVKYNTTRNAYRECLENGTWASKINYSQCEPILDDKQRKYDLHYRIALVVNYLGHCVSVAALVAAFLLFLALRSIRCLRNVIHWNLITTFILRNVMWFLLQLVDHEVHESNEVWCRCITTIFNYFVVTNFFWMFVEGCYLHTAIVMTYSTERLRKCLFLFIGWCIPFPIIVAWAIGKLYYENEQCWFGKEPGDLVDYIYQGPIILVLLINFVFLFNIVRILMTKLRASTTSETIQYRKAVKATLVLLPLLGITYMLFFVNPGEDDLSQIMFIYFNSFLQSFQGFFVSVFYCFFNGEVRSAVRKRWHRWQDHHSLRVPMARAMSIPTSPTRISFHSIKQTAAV
# T4 sequence (P24387 whole entry): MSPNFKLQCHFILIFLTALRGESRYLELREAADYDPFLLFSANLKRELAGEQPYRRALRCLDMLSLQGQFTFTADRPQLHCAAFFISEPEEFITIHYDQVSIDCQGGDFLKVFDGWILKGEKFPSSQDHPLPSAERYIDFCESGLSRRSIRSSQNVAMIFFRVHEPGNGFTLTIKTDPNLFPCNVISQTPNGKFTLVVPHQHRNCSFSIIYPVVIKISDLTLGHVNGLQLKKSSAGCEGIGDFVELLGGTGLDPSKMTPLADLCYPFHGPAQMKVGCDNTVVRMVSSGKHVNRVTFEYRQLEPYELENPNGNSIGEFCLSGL
# [14] = NIH3T3 cell viability loss – ATP luminescence, mouse fibroblasts, counter-screen, dose response (AID 2010); format: functional, cell-based;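 further: cells exposed to compound for about 90 hours before reading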
# [15] = tested on: INS1; test: INS-1E survival protection against cytokine death – cell-based, luminescence, retest, dose response (AID 449756); format: functional; conditions: Rattus norvegicus;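 further: cell death triggered by IL-1 beta plus TNF-alpha plus IFN-gamma mixture; protective hits raise ATP signal compared with cytokine alone wells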
# [16] = Trypanosoma cruzi growth suppression in host cells – NIH3T3 host cells, beta-gal luminescence, confirmation (AID 2044); format: functional, cell-based;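 further: intracellular parasites grown in NIH/3T3 mouse fibroblasts as host cells; luminescent beta-galactosidase reporter signal from transgenic T. cruzi replicating inside host cells; inhibitors lower the luminescence signal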
# [17] = cells
# [18] = biological target: T5, Microphthalmia-associated transcription factor (Homo sapiens, UniProt O75030); test: reducers of TRPM1 reporter luminescence, concentration series – cell-based, SK-MEL-5, cherry-picked, set 3, MITF inhibitor project, dose response (AID 493073); format: functional;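 further: SK-MEL-5 melanoma cells with luciferase driven by the MITF target TRPM1 promoter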
# T5 sequence (O75030 whole entry): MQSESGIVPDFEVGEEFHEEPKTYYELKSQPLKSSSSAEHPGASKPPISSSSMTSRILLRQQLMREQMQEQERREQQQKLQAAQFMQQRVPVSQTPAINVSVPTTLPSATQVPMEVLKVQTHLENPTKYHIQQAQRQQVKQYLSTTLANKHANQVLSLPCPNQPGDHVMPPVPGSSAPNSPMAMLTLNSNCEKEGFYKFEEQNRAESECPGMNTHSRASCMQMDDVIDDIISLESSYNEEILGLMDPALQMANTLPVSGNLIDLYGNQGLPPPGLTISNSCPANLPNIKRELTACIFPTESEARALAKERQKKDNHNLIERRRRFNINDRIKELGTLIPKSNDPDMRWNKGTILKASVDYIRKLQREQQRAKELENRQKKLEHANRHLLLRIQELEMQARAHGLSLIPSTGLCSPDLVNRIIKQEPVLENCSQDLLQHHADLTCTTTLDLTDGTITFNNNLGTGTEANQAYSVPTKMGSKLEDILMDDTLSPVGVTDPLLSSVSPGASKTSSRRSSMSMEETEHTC
# [19] = tested on: HEK293; test: cells; format: functional, cell-based; conditions: Homo sapiens
# [20] = tested on: HEK293; test: cells; format: functional, cell-based; conditions: Homo sapiens; remark: listed apart in the source
# [21] = tested on: HEK293; test: NOD2 signaling inhibitors in MDP-stimulated cells, cell-based, uHTS, luminescence (AID 2001); format: functional; conditions: Homo sapiens
smiles,measurement,setting,value
O=C(O)c1nn(Cc2ccc(Cl)cc2Cl)c2ccccc12 [LONIDAMINE],AC50,[1],39.8 µM (inconclusive)
same,IC50,[2],7.37 µM (active)
CN(C)c1ccc(NC(=O)CSc2nnc(-c3ccco3)c(-c3ccco3)n2)cc1,IC50,[3],6.98 µM (active)
O=C(/C=C/c1ccc2c(c1)OCO2)Nc1cccnc1,EC50,[4],6.64 µM (active)
same,EC50,[5],> 350 µM (not active)
O=C(CSCC(=O)N1CCCCC1)Nc1nc(-c2cccs2)cs1,EC50,[6],0.595 µM (active)
COC(=O)CSc1cc([N+](=O)[O-])cc2c1c(C1OCCO1)nn2-c1ccccc1,EC50,[7],> 99 µM (inactive)
same,EC50,[8],> 99 µM (inactive)
COc1ccc(Br)c(C(=O)OCc2cc(=O)oc3cc(C)ccc23)c1,EC50,[7],> 99 µM (inactive)
same,EC50,[8],> 99 µM (inactive)
CC1CCC2(CC1)NC(=O)N(CC(=O)Nc1ccc(N3CCOCC3)cc1)C2=O (stereo not drawn),IC50,[2],58.6 µM (active)
CCCCN1C(=O)/C(=C/C=C/C=C/Nc2ccccc2)SC1=S,EC50,[9],31.6 µM (active)
same,EC50,[10],24.6 µM (active)
same,EC50,[11],19.8 µM (active)
same,EC50,[12],> 150 µM (not active)
Nc1c(C(=O)Nc2nccs2)sc2nc(-c3cccs3)cc(C(F)(F)F)c12,EC50,[7],> 99 µM (inactive)
same,EC50,[13],2.76 µM (active)
same,EC50,[8],> 99 µM (inactive)
Cc1cc(C)n2nc(C(=O)N/N=C/c3ccc(O)cc3)nc2n1,IC50,[3],43.9 µM (active)
CN1CCN(c2ccc([N+](=O)[O-])cc2C(=O)c2ccccc2)CC1,EC50,[9],39.6 µM (active)
same,EC50,[10],> 150 µM (not active)
same,EC50,[11],> 150 µM (not active)
same,EC50,[12],> 150 µM (not active)
Cc1ccc(-c2c[n+](Cc3ccc(Cl)cc3)c3n2CCC3)cc1,EC50,[14],> 30 µM (not active)
same,AC50,[15],5.16 µM (active)
same,EC50,[16],< 0.1 µM (active)
same,EC50,[17],0.027 µM (active)
same,AC50,[18],14.2 µM (active)
COc1ccccc1N1CCN(C(=O)C2CCCN(S(=O)(=O)c3ccc4c(c3)oc(=O)n4C)C2)CC1 (stereo not drawn),IC50,[19],> 20 µM (inactive)
same,IC50,[20],> 20 µM (inactive)
same,IC50,[21],> 20 µM (inactive)
CCCn1/c(=N/C(=O)c2c(-c3c(F)cccc3Cl)noc2C)c(C(=O)OCC)cc2c(=O)n3ccccc3nc21,EC50,[4],> 350 µM (not active)
same,EC50,[5],> 350 µM (not active)
